In US20080226685A1, “Product and Method for Controlling Flying Insects” (Reckitt Benckiser (Australia) Pty Limited, priority 2003, published 2008):
Where two headings read alike, the source gives them in different places.

Legend:
[1] = cited from earlier work
[2] = Emanation rate from 18 gsm paper honeycomb, wet dosed in Norpar 12 (Example 7); format: physicochemical; details: 30 mg on 18 gsm honeycomb, estimated surface area 2199 cm^2, wet dosed in Norpar 12, 28° C., low airflow
Description: A study involving dosing 18 gsm paper configured into a honeycomb format with an estimated surface area of 2199 cm^2 with metofluthrin (30 mg) was made to determine the emanation rate from this substrate.
The metofluthrin was dissolved in Norpar 12 and dosed on to the substrate using the wet dosing technique. The papers were hung and aged in a chamber at 28° C. with low airflow for up to a maximum of 80 hours. The amount of metofluthrin remaining on the paper substrate was measured from time 0 hours to 80 hours. The plot obtained for the amount of metofluthrin remaining on samples as a function of time was used to calculate the release rate from this format.

Aedes aegypti mosquitoes = experiment: Knockdown studies in a 40 m^3 test chamber with paper dosed with metofluthrin; format: in vivo
Description: The inventors have carried out a number of knockdown studies for the control of mosquitoes using paper surfaces impregnated and/or dosed with the vapour active insecticide metofluthrin. The active was applied to each paper surface as a solution in acetone/ethanol (1:1).
Tests were carried out in a 40 m^3 test chamber. The temperature was approximately 28° C. Mixed sex Aedes aegypti mosquitoes were used, aged for 7-10 days after emergence. Up to 200 mosquitoes were introduced into the chamber for each test. Three replicates were done for each treatment. Knocked down mosquitoes were collected at the end of each assessment period and counted.
Knockdown studies against the Dengue mosquito Aedes aegypti using three surface areas a) A2, b) A3 and c) A4 of 18 gsm paper in the above test chamber were carried out. Each paper was treated with 150 mg of metofluthrin. A mosquito coil containing 0.04% Prallethrin was included as a reference control.
A knockdown study against the Dengue mosquito Aedes aegypti using aged paper was conducted. The test involved treating 18 gsm paper of A4 surface area with 2 mg of metofluthrin at 28° C. for up to 12 hours. The treated paper was hung in the centre of the above chamber. A mosquito coil containing 0.04% prallethrin was included in the trial as a reference control.

[3] = Emanation rate from 30 gsm paper dosed with different solvents (Example 8); format: physicochemical; details: 14 mg on A4 30 gsm paper, 28° C.
Description: A study of the metofluthrin emanation rate from 30 gsm paper dosed with different solvents was made.
White (A4) paper (30 gsm) having a surface area of […] was dosed with metofluthrin (14 mg) prepared in a range of solvents, as listed below. The papers were aged in a chamber at 28° C. with low air flow for up to a maximum of 168 hours. The amount of metofluthrin remaining on the paper substrate was measured from time 0 hours to 168 hours. The following solvents were used:
The inventors have concluded that linear release kinetics are observed for metofluthrin emanating from paper substrates and accordingly, the line of best fit was fitted to obtain the linear equation to enable the rate of emanation to be determined.

[4] = Stability and packaging suitability, storage at 55° C. (Example 10); format: physicochemical
Description: The stability and packaging suitability of various materials was studied. In these studies, metofluthrin (14 mg) was applied to A4 sized 30 gsm paper substrates via wet and dry application at ambient temperature. The samples were placed in pouches prepared from the packaging materials under investigation, sealed tightly and stored at 55° C. After periods of one and two weeks, samples were removed from storage and the dosed paper substrates were measured for metofluthrin content. The packaging materials studied were glass, PVC, amorphous PET (APET), crystalline PET (CPET), aluminium foil, heat sealable polyester films, acrylonitrile methyl acrylate copolymer and PEPET. For the wet dosing of metofluthrin on the paper substrate, the metofluthrin was dissolved in Exxsol D80 or Norpar 12 and the resulting solution applied to the substrate. For dry application, the metofluthrin was dissolved in acetone/ethanol (1:1 by volume) and applied to the substrate. The solvent was then allowed to evaporate over a period of 5-10 minutes.

[5] = Emanation rate from 50 gsm A4 paper dosed with different amounts (Example 6); format: physicochemical; details: A4 50 gsm paper, dry dosing in acetone/ethanol (1:1), 25 mg to approximately 5 mg, 28° C., low air flow
Description: A study involving dosing 50 gsm paper with different amounts of metofluthrin was made to investigate the affect on the emanation rate from this substrate. Three samples of white (A4) paper (50 gsm) each having a surface area of 1250 cm^2 were dosed with metofluthrin (25, 20 and 14 mg) dissolved in acetone/ethanol (1:1) using the dry dosing technique. The papers were aged in a chamber at 28° C. with low air flow for up to a maximum of 214 hours. The amount of metofluthrin remaining on the paper substrate was measured from time 0 hours to 214 hours. The plot obtained for the emanation rate of metofluthrin from the 25 mg dosed samples was used to estimate the time it would take for 20 and 14 mg of metofluthrin to remain on the samples.

[6] = Emanation rate from 18 gsm paper dosed with different solvents (Example 9); format: physicochemical; details: 14 mg on A4 18 gsm tissue paper, 28° C.
Description: A study of the metofluthrin emanation rate from 18 gsm paper dosed with different solvents was made.
Tissue paper (18 gsm) having an effective surface area of 1250 cm^2 (A4) was dosed with metofluthrin (14 mg) prepared in a range of solvents. The papers were then aged in a chamber at 28° C. with low airflow for up to a maximum of 168 hours. The amount of metofluthrin remaining on the paper substrate was measured from time 0 hours to 168 hours. The following solvents were used:
The inventors have concluded that linear release kinetics are observed for metofluthrin emanating from paper substrates and accordingly, the line of best fit was fitted to obtain the linear equation to enable the rate of emanation to be determined: […]

**Q.** With `C#CC(OC(=O)C1C(C=C(C)C)C1(C)C)/C(C)=C/CC` (centres unmarked) [empenthrin] as the compound, how does the “vapour pressure (volatility at ambient temperature)” value ([1]; 23.6° C.) read?
**A.** 14 mPa

**Q.** With `CC1(C)[C@H](C=C(Cl)Cl)[C@H]1C(=O)OCc1c(F)c(F)c(F)c(F)c1F` [fenfluthrin] as the compound, how does the “vapour pressure (volatility at ambient temperature)” value ([1]; 20° C.) read?
**A.** 1 mPa

**Q.** For `CC=CC1C(C(=O)OCc2c(F)c(F)c(COC)c(F)c2F)C1(C)C` (racemic) [metofluthrin, 2,3,5,6-tetrafluoro-4-(methoxymethyl)benzyl-(EZ)-(1RS,3RS;1RS,3SR)-2,2-dimethyl-3-(prop-1-enyl)cyclopropanecarboxylate], which emanation rate [2] is on record?
**A.** 0.22 mg/h

**Q.** What about the knockdown (Aedes aegypti mosquitoes; 2 mg on A4 18 gsm paper aged at 28° C., for up to 4 hours, 40 m^3 chamber) of the same compound?
**A.** greater than 40%

**Q.** And the “effectiveness relative to control (mosquito coil 0.04% prallethrin)” value (Aedes aegypti mosquitoes; 2 mg on A4 18 gsm paper, at 4 hours of aging at 28° C.)?
**A.** twice as effective as the control

**Q.** And the “knockdown effectiveness compared with reference control” value (Aedes aegypti mosquitoes; A2, A3 and A4 18 gsm paper each treated with 150 mg, 40 m^3 chamber, approx. 28° C., control = mosquito coil containing 0.04% Prallethrin)?
**A.** more effective than the control

**Q.** And the “Release Rate Index” value ([3]; solvent Acetone/ethanol (1:1), dry dosing (reference = 1))?
**A.** 1.00

**Q.** What about the “Release Rate Index” value ([3]; solvent Exxsol D40, wet dosing, relative to acetone/ethanol) of the same compound?
**A.** 1.40

**Q.** What about the “Release Rate Index” value ([3]; solvent Exxsol D80, wet dosing, relative to acetone/ethanol) of the same compound?
**A.** 1.41

**Q.** What about the “Release Rate Index” value ([3]; solvent Exxsol D140, wet dosing, relative to acetone/ethanol) of the same compound?
**A.** 0.25

**Q.** What about the “Release Rate Index” value ([3]; solvent HoTung C11-14, wet dosing, relative to acetone/ethanol) of the same compound?
**A.** 1.37

**Q.** What about the “Release Rate Index” value ([3]; solvent Isopar G, wet dosing, relative to acetone/ethanol) of the same compound?
**A.** 1.58

**Q.** What about the “metofluthrin recovered from paper substrate (%)” value (from here on “metofluthrin recovered … (%)”) ([4]; packaging APET, dry dosing, acetone/ethanol (1:1), 1 week at 55° C.) of the same compound?
**A.** 87%

**Q.** And the “metofluthrin recovered … (%)” value ([4]; packaging APET, dry dosing, acetone/ethanol (1:1), 2 weeks at 55° C.)?
**A.** 82%

**Q.** What about the “metofluthrin recovered … (%)” value ([4]; packaging APET, wet dosing, Exxsol D80, 1 week at 55° C.) of the same compound?
**A.** 95%

**Q.** And the “metofluthrin recovered … (%)” value ([4]; packaging APET, wet dosing, Exxsol D80, 2 weeks at 55° C.)?
**A.** 100%

**Q.** What about the “metofluthrin recovered … (%)” value ([4]; packaging Acrylonitrile methyl acrylate copolymer, wet dosing, Norpar 12, 1 week at 55° C.) of the same compound?
**A.** 98%

**Q.** And the “metofluthrin recovered … (%)” value ([4]; packaging Acrylonitrile methyl acrylate copolymer, wet dosing, Norpar 12, 2 weeks at 55° C.)?
**A.** 99%

**Q.** What about the “metofluthrin recovered … (%)” value ([4]; packaging Aluminium foil, dry dosing, acetone/ethanol (1:1), 1 week at 55° C.) of the same compound?
**A.** 99%

**Q.** And the “metofluthrin recovered … (%)” value ([4]; packaging Aluminium foil, dry dosing, acetone/ethanol (1:1), 2 weeks at 55° C.)?
**A.** 98%

**Q.** And the “metofluthrin recovered … (%)” value ([4]; packaging Aluminium foil, wet dosing, Exxsol D80, 1 week at 55° C.)?
**A.** 99%

**Q.** And the “metofluthrin recovered … (%)” value ([4]; packaging Aluminium foil, wet dosing, Exxsol D80, 2 weeks at 55° C.)?
**A.** 100%

**Q.** What about the “metofluthrin recovered … (%)” value ([4]; packaging CPET, dry dosing, acetone/ethanol (1:1), 1 week at 55° C.) of the same compound?
**A.** 98%

**Q.** What about the “metofluthrin recovered … (%)” value ([4]; packaging CPET, dry dosing, acetone/ethanol (1:1), 2 weeks at 55° C.) of the same compound?
**A.** 99%

**Q.** What about the “metofluthrin recovered … (%)” value ([4]; packaging CPET, wet dosing, Exxsol D80, 1 week at 55° C.) of the same compound?
**A.** 96%

**Q.** And the “metofluthrin recovered … (%)” value ([4]; packaging CPET, wet dosing, Exxsol D80, 2 weeks at 55° C.)?
**A.** 100%

**Q.** What about the “metofluthrin recovered … (%)” value ([4]; packaging Glass (bottle), dry dosing, acetone/ethanol (1:1), 1 week at 55° C.) of the same compound?
**A.** 90%

**Q.** What about the “metofluthrin recovered … (%)” value ([4]; packaging Glass (bottle), dry dosing, acetone/ethanol (1:1), 2 weeks at 55° C.) of the same compound?
**A.** 81%

**Q.** What about the “metofluthrin recovered … (%)” value ([4]; packaging Glass (bottle), wet dosing, Exxsol D80, 1 week at 55° C.) of the same compound?
**A.** 100%

**Q.** What about the “metofluthrin recovered … (%)” value ([4]; packaging Glass (bottle), wet dosing, Exxsol D80, 2 weeks at 55° C.) of the same compound?
**A.** 98%

**Q.** And the “metofluthrin recovered … (%)” value ([4]; packaging PEPET, wet dosing, Norpar 12, 1 week at 55° C.)?
**A.** 78%

**Q.** And the “metofluthrin recovered … (%)” value ([4]; packaging PEPET, wet dosing, Norpar 12, 2 weeks at 55° C.)?
**A.** 77%

**Q.** And the “metofluthrin recovered … (%)” value ([4]; packaging PVC, dry dosing, acetone/ethanol (1:1), 1 week at 55° C.)?
**A.** 64%

**Q.** What about the “metofluthrin recovered … (%)” value ([4]; packaging PVC, dry dosing, acetone/ethanol (1:1), 2 weeks at 55° C.) of the same compound?
**A.** 46%

**Q.** What about the “metofluthrin recovered … (%)” value ([4]; packaging PVC, wet dosing, Exxsol D80, 1 week at 55° C.) of the same compound?
**A.** 73%

**Q.** What about the “metofluthrin recovered … (%)” value ([4]; packaging PVC, wet dosing, Exxsol D80, 2 weeks at 55° C.) of the same compound?
**A.** 44%

**Q.** And the “metofluthrin recovered … (%)” value ([4]; packaging heat sealable polyester films, dry dosing, acetone/ethanol (1:1), 2 weeks at 55° C.)?
**A.** 92%

**Q.** What about the “metofluthrin recovered … (%)” value ([4]; packaging heat sealable polyester films, wet dosing, Exxsol D80, 2 weeks at 55° C.) of the same compound?
**A.** 100%

**Q.** What about the “emanation rate when varying initial amount dosed” value [5] of the same compound?
**A.** constant

**Q.** And the “Release Rate Index” value ([6]; solvent Dowanol DPM, wet dosing, relative to acetone/ethanol)?
**A.** 1.20

**Q.** What about the “Release Rate Index” value ([6]; solvent Dowanol TPM, wet dosing, relative to acetone/ethanol) of the same compound?
**A.** 1.24

**Q.** And the “Release Rate Index” value ([6]; solvent Isopar L, wet dosing, relative to acetone/ethanol)?
**A.** 1.75

**Q.** And the “Release Rate Index” value ([6]; solvent Sasol C12-13, wet dosing, relative to acetone/ethanol)?
**A.** 1.63

**Q.** What about the “Release Rate Index” value ([6]; solvent acetone/ethanol (1:1), dry dosing (reference = 1)) of the same compound?
**A.** 1.00

**Q.** And the “Release Rate Index” value ([6]; solvent n-pentane, dry dosing, relative to acetone/ethanol)?
**A.** 1.50

**Q.** Which results are given for `Cc1c(F)c(F)c(COC(=O)[C@@H]2[C@H](/C=C(\Cl)C(F)(F)F)C2(C)C)c(F)c1F` (racemic) [tefluthrin]?
**A.** vapour pressure (volatility at ambient temperature) ([1]; 20° C.): 8.4 mPa; vapour pressure (volatility at ambient temperature) ([1]; 40° C.): 50 mPa
